# Reference: patent US20050070565A1, “Chelerythrine, analogs thereof and their use in the treatment of bipolar disorder and other cognitive disorders” (priority 2003, published 2005)
# Entries after “also recorded” stand apart in the source; their conditions may differ.
# Assays:
# rhesus monkeys [1] = test: Spatial delayed response task (working memory); format: in vivo, rhesus monkey
# From the text: (§1) NE α-1 adrenergic receptors are positively coupled to PKC through a Gq-protein linked to the PI intracellular signaling pathway (FIG. 1). Previous studies have shown that infusion of the α-1 adrenergic receptor agonist, phenylephrine, into the prefrontal cortex impairs working memory in both rats (Arnsten et al., 1999; FIGS. 2, 6 and 10B) and monkeys (Mao et al, 1999). Likewise, systemic injections of cirazoline, an α-1 adrenergic receptor agonist that crosses the blood brain barrier, impairs working memory in monkeys (FIGS. 5 and 10C). Thus, PKC was activated indirectly by infusing phenylephrine into the prefrontal cortex in rats (5 min prior to cognitive testing), or by systemic administration of cirazoline in monkeys (intramuscular injections, 30 min prior to cognitive testing). Monkeys had been previously trained on the spatial delayed response task, the task most commonly used to assess prefrontal cortical function in nonhuman primates. The PKC inhibitor, chelerythrine, was administered directly into the prefrontal cortex in rats (5 min prior to cognitive testing), or systemically in monkeys (oral administration, 60 min prior to cognitive testing).
# (§2) The anxiogenic stressor, FG7142, was administered systemically to rats (interperitonial injection) or monkeys (intramuscular injection) 30 min prior to cognitive testing. Chelerythrine was administered directly into the prefrontal cortex in rats (15 min prior to cognitive testing), or systemically in monkeys (oral administration, 60 min prior to cognitive testing). […] This cognitive impairment was blocked by chelerythrine (FIGS. 11A and 11B), consistent with stress-induced activation of PKC.
# (§3) Chelerythrine was administered orally to rhesus monkeys at doses of either […] or 0.3 mg/kg 60 min before cognitive testing, 30 minutes prior to stress exposure (FG7142 0.2-1.0 mg/kg, i.m.). In addition to cognitive testing, monkeys are also assessed for changes in sedation, agitation, aggression, motivation, food intake, and both fine and gross motor abilities. Four monkeys were tested.
# rats [2] = conditions: cited from earlier work
# rats [3] = test: Spatial delayed alternation task in a T maze (working memory); format: in vivo, rat
# Experimental: (§4) The influence of PKC activation on prefrontal cortical function was tested in rats and monkeys performing spatial working memory tasks that are critically dependant upon the integrity of the prefrontal cortex. All procedures were approved by the Yale Institutional Animal Care and Use Committee. Rats were trained on the spatial delayed alternation task in a T maze, or on a control task, spatial discrimination, which has similar motor and motivational demands but depends upon the posterior cortex and not the prefrontal cortex. Performance on the delayed alternation task is dependant upon the length of the delay between trials. The delay was raised as needed to maintain each individual animals performance at approximately 70% correct, allowing room for improvement or impairment in performance following drug administration.
# Following behavioral training, rats were implanted with guide cannulae to allow drug infusions into the prefrontal cortex (stereotaxic coordinates from bregma and skull surface: anterior +3.2 mm, lateral ±0.75 mm, ventral −1.7 mm). The infusion needles projected 2.8 mm below the guide cannula such that the infusion site was −4.5 mm ventral to skull surface. Rats were allowed to recover for one week following surgery. Drug treatments were administered only after the animal achieved stable performance (60-80% correct) for two consecutive days. […] The PMA-induced working memory impairment was blocked by co-administration of chelerythrine, which had no effect on performance when administered alone (FIG. 10A). In contrast, PMA (5 picograms PMA/0.5 μl) had no effect on performance of the control spatial discrimination task (10 sec delays, mean performance after vehicle: 92.0%±11.0%, mean performance after PMA: 88.0%±13.0%, p=0.587, Tdep test).
# as §1, §2
# (§5) Rats were injected with 0, 0.3, or 3.0 mg/kg chelerythrine s.c. in water approximately 45 minutes before cognitive testing; they receive an injection of the pharmacological stressor, FG7142 (15 mg/kg, i.p.) or vehicle 30 minutes prior to cognitive testing. All drug treatments occur at least one week apart, and the order of treatments is counterbalanced between animals. […] All ratings were performed by experimenters who were very familiar with the normative behavior of the animal but were unaware of the drug treatment conditions.
# rats [4] = test: Response time per trial (stress-induced freezing) during delayed alternation testing; format: in vivo, rat
# Experimental: FIG. 11 illustrates a summary whereby treatment with chelerythrine reverses the detrimental effects of: A. stress in rats; or B. stress in monkeys. […] In A, the anxiogenic stressor, FG7142 (range: 10 to 20 mg/kg), impaired delayed alternation performance compared to vehicle treatment in rats (vehicle+vehicle vs. FG7142+vehicle: * ANOVA-R, F1,10=25.095, p=0.001). The FG7142-induced cognitive deficit was reversed by infusion of the PKC inhibitor, chelerythrine, into the prefrontal cortex 15 min prior to testing (0.3 μg/0.5 μl; FG7142+vehicle vs. FG7142+chelerythrine: † F1,10=10.170, p=0.010). […] The FG7142-induced cognitive deficit was reversed by pretreatment with the PKC inhibitor, chelerythrine (0.03 mg/kg; FG7142+vehicle vs. FG7142+chelerythrine: † F1,4=21.23, p=0.006).
# For example, stressors such as FG7142 induce freezing behaviors in rodents that effectively lengthen the delays and increase the memory demands of the task (FIG. 11C).
# rats [5] = test: Behavioral observations for side effects in home cage and during cognitive testing; format: in vivo, rat; conditions: 0.3 or 3.0 mg/kg s.c.
# Experimental: as §5
# rhesus monkeys [6] = test: Assessment of sedation, agitation, aggression, motivation, food intake and motor abilities; format: in vivo, rhesus monkey; conditions: oral 0.03 or 0.3 mg/kg
# Experimental: as §3
# rats [7] = test: Spatial discrimination control task; format: in vivo, rat; conditions: 5 picograms PMA/0.5 μl
# Experimental: as §4
# Following behavioral training, rats were implanted with guide cannulae to allow drug infusions into the prefrontal cortex (stereotaxic coordinates from bregma and skull surface: anterior +3.2 mm, lateral ±0.75 mm, ventral −1.7 mm). The infusion needles projected 2.8 mm below the guide cannula such that the infusion site was −4.5 mm ventral to skull surface. Rats were allowed to recover for one week following surgery. Drug treatments were administered only after the animal achieved stable performance (60-80% correct) for two consecutive days. […]
# [8] = co-infusion into prefrontal cortex, chelerythrine 0.3 μg/0.5 μl
smiles,measurement,setting,value
"c1ccc(C2CC2)c(OCC2=NCCN2)c1 [cirazoline, reference compound]",delayed response performance after α-1 agonist vs vehicle,"rhesus monkeys [1]; monkeys, cirazoline 0.001 to 10 μg/kg intramuscular, 30 min prior to testing",significantly impaired
COc1ccccc1N1CCN(CCCNc2cc(=O)n(C)c(=O)n2C)CC1 [urapidil],effect on phenylephrine-induced working memory impairment (FIG. 2),rats [2]; co-infusion of urapidil into prefrontal cortex,prevented
same,effect on stress-induced working memory impairment (FIG. 3),rats [2]; urapidil infused into prefrontal cortex,prevented
"CNC(=O)c1cc2c(cn1)[nH]c1ccccc12 [FG7142, reference compound]",delayed alternation performance after stressor vs vehicle,"rats [3]; FG7142 10 to 20 mg/kg, 30 min prior to testing",impaired
same,delayed response performance after stressor vs vehicle,"rhesus monkeys [1]; monkeys, FG7142 0.2 to 2.0 mg/kg injection",significantly impaired
same,average response time for each trial after stressor vs vehicle,rats [4]; FG7142,increased response time
"COc1ccc2c(c[n+](C)c3c4cc5c(cc4ccc23)OCO5)c1OC.[Cl-] [chelerythrine, 1,2-dimethoxy-12-methyl[1,3]benzodioxolo[5,6-c]phenanthridinium]","effect on detrimental effects of stress exposure, lower systemic dose","rats [3]; 0.3 mg/kg s.c., 45 min before testing, FG7142 15 mg/kg i.p., p=0.018, n=4",significantly reversed
same,"effect on cognitive deficits due to stress, higher systemic dose","rats [3]; 3.0 mg/kg s.c., FG7142 15 mg/kg i.p.",did not reverse
same,"average correct, drug on its own","rats [3]; 3.0 mg/kg s.c., no stressor, similar to vehicle",72.5 % correct
same,effect on PMA-induced working memory deficit,rats [3]; [8],reversed; also recorded: blocked
same,effect on phenylephrine-induced working memory deficit,rats [3]; [8],significantly reversed
same,effect on FG7142 (stress)-induced cognitive deficit,"rats [3]; infusion into prefrontal cortex 0.3 μg/0.5 μl, 15 min prior to testing",significantly reversed
same,"effect on stress response (cognitive deficit), higher infused dose",rats [3]; infusion into prefrontal cortex 3.0 μg/0.51 μl,did not reverse
same,performance when higher dose infused by itself,"rats [3]; infusion into prefrontal cortex 3.0 μg/0.51 μl, no stress",no effect
same,"delayed alternation performance, drug on its own","rats [3]; infusion into prefrontal cortex, 0.3 μg/0.5 μl, no challenge",no effect
same,side effects with administration by itself,rats [5],no significant side effects
same,effect on FG7142-induced cognitive deficit,"rhesus monkeys [1]; monkeys, chelerythrine pretreatment 0.03 mg/kg",reversed
same,effect on cirazoline-induced working memory deficit,"rhesus monkeys [1]; monkeys, chelerythrine pretreatment 0.03 mg/kg oral, 60 min prior to testing",reversed
same,"delayed response (cognitive) performance, drug on its own","rhesus monkeys [1]; monkeys, oral chelerythrine, no challenge",no effect
same,share of monkeys with complete protection at the lower dose,"rhesus monkeys [1]; rhesus monkeys, 0.03 mg/kg oral, other half required 0.3 mg/kg for full reversal",Half of the monkeys showed complete protection
same,effect on detrimental effects of stress on prefrontal cortical function,"rhesus monkeys [1]; rhesus monkeys, oral 0.03/kg or 0.3 mg/kg 60 min before testing, FG7142 0.2-1.0 mg/kg i.m., n=4, p<0.05",significantly reversed
same,effect on FG7142-induced increased response time,rats [4]; chelerythrine infused into prefrontal cortex,not blocked; also recorded: no effect on response time
same,tolerability / side effects,rhesus monkeys [6],well-tolerated with no side effects
"CCCCCCCCCCCCCC(=O)O[C@@H]1[C@@H](C)[C@@]2(O)[C@@H](C=C(CO)C[C@]3(O)C(=O)C(C)=C[C@@H]23)[C@@H]2C(C)(C)[C@]12OC(C)=O [PMA, phorbol 12-myristate 13-acetate]",delayed alternation performance after direct PKC activation vs vehicle,"rats [3]; PMA infused into prefrontal cortex, 0.05 to 5 pg/0.5 μl, 10 min prior to testing",significantly impaired
same,effect on performance of control spatial discrimination task,rats [7],no effect
same,mean performance on control spatial discrimination task,"rats [7]; 10 sec delays, vehicle 92.0%±11.0%, p=0.587",88.0%±13.0%
"CNC[C@H](O)c1cccc(O)c1 [phenylephrine, reference compound]",delayed alternation performance after α-1 agonist infusion vs vehicle,"rats [3]; phenylephrine 0.1 μg/0.5 μl into prefrontal cortex, 5 min prior to testing",significantly impaired
